Measured values as given in the NIST ThermoML archive (doi:10.1021/acs.jced.8b01146).
Numbers after ± are expanded uncertainties.

Details: 100 kPa, Liquid, Vibrating tube method

| Compound | mass density (288.15 K) [kg/m3] | mass density (293.15 K) [kg/m3] | mass density (298.15 K) [kg/m3] | mass density (303.15 K) [kg/m3] | mass density (308.15 K) [kg/m3] | mass density (313.15 K) [kg/m3] | mass density (318.15 K) [kg/m3] | mass density (323.15 K) [kg/m3] |
| --- | --- | --- | --- | --- | --- | --- | --- | --- |
| CCC1CCC(=O)O1 (stereo not given) [2(3H)-furanone, 5-ethyldihydro-] | 1029.16 ± 0.54 | 1024.74 ± 0.54 | 1020.33 ± 0.53 | 1015.91 ± 0.53 | 1011.49 ± 0.53 | 1007.07 ± 0.53 | 1002.65 ± 0.53 | 998.229 ± 0.53 |
| CC1CCCC(=O)O1 (stereo not given) [2H-pyran-2-one, tetrahydro-6-methyl-] | 1053.81 ± 0.51 | 1049.47 ± 0.51 | 1045.14 ± 0.51 | 1040.81 ± 0.51 | 1036.48 ± 0.51 | 1032.15 ± 0.51 | 1027.82 ± 0.51 | 1023.51 ± 0.51 |
| CC1CCC(=O)O1 (stereo not given) [γ-valerolactone] | 1058.51 ± 0.51 | 1053.81 ± 0.51 | 1049.1 ± 0.51 | 1044.4 ± 0.51 | 1039.69 ± 0.51 | 1034.98 ± 0.51 | 1030.27 ± 0.51 | 1025.56 ± 0.51 |
| O=C1CCCO1 [γ-butyrolactone] | 1134.26 ± 0.51 | 1129.35 ± 0.51 | 1124.44 ± 0.51 | 1119.53 ± 0.51 | 1114.61 ± 0.51 | 1109.69 ± 0.51 | 1104.77 ± 0.51 | 1099.86 ± 0.51 |
| CC1=CCC(=O)O1 [5-methylfuran-2(3H)-one] | 1099.32 ± 0.7 | 1093.94 ± 0.7 | 1088.55 ± 0.69 | 1083.16 ± 0.69 | 1077.77 ± 0.69 | 1072.38 ± 0.68 | 1066.98 ± 0.68 | 1061.58 ± 0.67 |
